Results taken from patent US7759366B2 (Sanofi-Aventis, priority 2006, dated 2010).
Counter-ions that a name gives are not always drawn. Like-named read-outs stand apart in the source and are kept apart here.

Experiments:
hCB1R = hCB1R (Homo sapiens, UniProt P21554); experiment: In vitro functional assay (FLIPR, intracellular Ca2+) with recombinant HEK293 cells, CB1; type: cell-based; set-up: expressed in transfected cells; host or cells: HEK293
From the text: In Vitro Functional Assays with Recombinant Cells:

hCB2R = hCB2R (Homo sapiens, UniProt P34972); experiment: In vitro functional assay (FLIPR, intracellular Ca2+) with recombinant HEK293 cells, CB2;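 further: intracellular Ca2+ was tracked with the fluorescent dye Fluo-4 loaded into the cells before test substance addition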
Chain of hCB2R (P34972 whole entry): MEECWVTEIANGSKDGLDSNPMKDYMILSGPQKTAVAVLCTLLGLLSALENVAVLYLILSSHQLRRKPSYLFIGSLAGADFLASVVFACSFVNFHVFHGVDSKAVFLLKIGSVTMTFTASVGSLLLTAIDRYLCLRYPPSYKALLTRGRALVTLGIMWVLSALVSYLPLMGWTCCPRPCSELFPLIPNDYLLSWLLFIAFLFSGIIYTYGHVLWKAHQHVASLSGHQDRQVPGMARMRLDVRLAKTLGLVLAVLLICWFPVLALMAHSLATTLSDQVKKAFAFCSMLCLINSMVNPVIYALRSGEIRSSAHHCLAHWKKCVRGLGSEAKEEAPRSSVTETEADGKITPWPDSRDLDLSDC
Method: Function-testing assays were performed by means of the FLIPR technique (“Fluorometric Imaging Plate Reader”, Molecular Devices Corp.).
To this end, ligand-induced changes in the intracellular concentration of Ca^2+ in recombinant HEK293 cells, which expressed both a cannabinoid receptor (CB1 or CB2) and G-protein Galpha16, were determined. For the studies, cells were sown into 96-well microtiter plates (60 000 cells/well) and left to grow overnight. The medium was removed and the cells were incubated in buffer which contained the fluorescent dye Fluo-4. After this loading with dye, the cells were washed, test substance was added dissolved in buffer, the mixture was incubated for 20 minutes, a known cannabinoid receptor agonist as a reference agonist was added in buffer and, finally, the changes in the intracellular Ca^2+ concentration were measured in the FLIPR unit.

[1] = read-out: hCB2R: FLIPR, IC50, recombinant HEK293 cells expressing CB2 and Galpha16, 20 min preincubation, then reference agonist, Ca2+ change
[2] = recombinant HEK293 cells expressing CB1 and Galpha16, 20 min preincubation, then reference agonist, Ca2+ change, read-out: hCB1R: FLIPR, IC50

Chain of hCB1R (P21554 whole entry): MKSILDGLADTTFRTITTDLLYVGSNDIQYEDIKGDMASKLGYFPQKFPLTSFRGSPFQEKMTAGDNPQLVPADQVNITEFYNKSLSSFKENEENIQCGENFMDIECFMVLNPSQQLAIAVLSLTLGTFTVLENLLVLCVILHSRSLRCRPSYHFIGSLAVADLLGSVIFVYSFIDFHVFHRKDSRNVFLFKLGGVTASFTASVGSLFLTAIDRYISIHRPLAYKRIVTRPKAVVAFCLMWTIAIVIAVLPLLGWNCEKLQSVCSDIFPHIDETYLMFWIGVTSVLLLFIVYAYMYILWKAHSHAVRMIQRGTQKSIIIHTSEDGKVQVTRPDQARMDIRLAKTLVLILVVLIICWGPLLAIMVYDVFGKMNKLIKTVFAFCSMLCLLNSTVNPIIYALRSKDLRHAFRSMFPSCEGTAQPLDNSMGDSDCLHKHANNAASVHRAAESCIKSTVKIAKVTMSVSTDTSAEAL

Structure (SMILES) | IC50 (hCB1R) [nM] | IC50 (hCB2R; [1]) [nM] | IC50 (hCB1R; [2]) [nM] | IC50 (hCB2R) [nM]
CC1(C)C(=O)N(c2ccc(C#N)c(C(F)(F)F)c2)C(=O)N1Cc1ccc(C(F)(F)F)cc1Nc1ccc(Cl)cc1 [Example 57, 4-{3-[2-(4-chlorophenylamino)-4-trifluoromethylbenzyl]-4,4-dimethyl-2,5-dioxoimidazolidin-1-yl}-2-trifluoromethylbenzonitrile] | 36 | > 10000 | – | –
CC1(C)C(=O)N(c2ccc(C#N)c(C(F)(F)F)c2)C(=O)N1Cc1ccccc1Nc1ccc(OC(F)(F)F)cc1F [Example 85, 4-{3-[2-(2-fluoro-4-trifluoromethoxyphenylamino)benzyl]-4,4-dimethyl-2,5-dioxoimidazolidin-1-yl}-2-trifluoromethylbenzonitrile] | 7 | > 10000 | – | –
COC(=O)c1ccc(Nc2ccccc2CN2C(=O)N(c3ccc(C#N)c(C(F)(F)F)c3)C(=O)C2(C)C)cn1 [Example 90, methyl 5-{2-[3-(4-cyano-3-trifluoromethylphenyl)-5,5-dimethyl-2,4-dioxoimidazolidin-1-ylmethyl]phenylamino}pyridine-2-carboxylate] | 39 | > 10000 | – | –
CC1(C)C(=O)N(c2ccc(C#N)c(C(F)(F)F)c2)C(=O)N1Cc1ccccc1Nc1ccc(CC(N)=O)cc1 [Example 97, 2-(4-{2-[3-(4-Cyano-3-trifluoromethylphenyl)-5,5-dimethyl-2,4-dioxoimidazolidin-1-ylmethyl]phenylamino}phenyl)acetamide] | 7 | > 10000 | – | –
CCOC(=O)COc1ccc(Nc2ccccc2CN2C(=O)N(c3ccc(C#N)c(C(F)(F)F)c3)C(=O)C2(C)C)cc1 [Example 138, ethyl (4-{2-[3-(4-cyano-3-trifluoromethylphenyl)-5,5-dimethyl-2,4-dioxoimidazolidin-1-ylmethyl]phenylamino}phenoxy)acetate] | 4 | > 10000 | – | –
CC1(C)C(=O)N(c2ccc(C#N)c(C(F)(F)F)c2)C(=O)N1Cc1ccccc1Nc1ccc(C#N)cc1F [Example 73, 4-{3-[2-(2-fluoro-4-cyanophenylamino)benzyl]-4,4-dimethyl-2,5-dioxoimidazolidin-1-yl}-2-trifluoromethylbenzonitrile] | 7 | > 10000 | – | –
CC1(C)C(=O)N(c2ccc(C#N)c(C(F)(F)F)c2)C(=O)N1Cc1ccc(Nc2ccccc2)cc1 [Example 30, 4-[4,4-Dimethyl-2,5-dioxo-3-(4-phenylaminobenzyl)imidazolidin-1-yl]-2-trifluoromethylbenzonitrile] | – | – | 208 | > 10000
CC1(C)C(=O)N(c2ccc(C#N)c(C(F)(F)F)c2)C(=O)N1Cc1ccccc1Nc1ccc(C(N)=O)cc1 [Example 136, 4-{2-[3-(4-Cyano-3-trifluoromethylphenyl)-5,5-dimethyl-2,4-dioxoimidazolidin-1-ylmethyl]phenylamino}benzamide] | 5 | > 10000 | – | –
COC(=O)Cc1ccc(Nc2ccccc2CN2C(=O)N(c3ccc(C#N)c(C(F)(F)F)c3)C(=O)C2(C)C)cc1 [Example 82, methyl (4-{2-[3-(4-cyano-3-trifluoromethylphenyl)-5,5-dimethyl-2,4-dioxoimidazolidin-1-ylmethyl]phenylamino}phenyl)acetate] | 52 | > 10000 | – | –
CC1(C)C(=O)N(c2ccc(C#N)c(C(F)(F)F)c2)C(=O)N1Cc1c(Cl)cc(Cl)cc1Nc1ccc(F)cc1F [Example 36, 4-{3-[2,4-dichloro-6-(2,4-difluorophenylamino)benzyl]-4,4-dimethyl-2,5-dioxoimidazolidin-1-yl}-2-trifluoromethylbenzonitrile] | 11 | > 10000 | – | –
COc1ccc(Nc2ccccc2CN2C(=O)N(c3ccc(C#N)c(C(F)(F)F)c3)C(=O)C2(C)C)c(F)c1 [Example 74, 4-{3-[2-(2-fluoro-4-methoxyphenylamino)benzyl]-4,4-dimethyl-2,5-dioxoimidazolidin-1-yl}-2-trifluoromethylbenzonitrile] | 4 | > 10000 | – | –
COc1ccc(Nc2ccccc2CN2C(=O)N(c3ccc(C#N)c(C(F)(F)F)c3)C(=O)C2(C)C)cc1OC [Example 75, 4-{3-[2-(3,4-dimethoxyphenylamino)benzyl]-4,4-dimethyl-2,5-dioxoimidazolidin-1-yl}-2-trifluoromethylbenzonitrile] | 49 | > 10000 | – | –
CC1(C)C(=O)N(c2ccc(C#N)c(C(F)(F)F)c2)C(=O)N1Cc1ccccc1Nc1ccc(F)cc1 [Example 2, 4-{3-[2-(4-fluorophenylamino)benzyl]-4,4-dimethyl-2,5-dioxoimidazolidin-1-yl}-2-trifluoromethylbenzonitrile] | 11 | > 10000 | – | –
CC1(C)C(=O)N(c2ccc(C#N)c(C(F)(F)F)c2)C(=O)N1Cc1ccccc1Nc1ccc(S(N)(=O)=O)cc1F [Example 81, 4-{2-[3-(4-cyano-3-trifluoromethylphenyl)-5,5-dimethyl-2,4-dioxoimidazolidin-1-ylmethyl]phenylamino}-3-fluorobenzenesulfonamide] | – | – | 144 | > 10000
CC1(C)C(=O)N(c2ccc(C#N)c(C(F)(F)F)c2)C(=O)N1Cc1ccccc1Nc1ccc(CC#N)cc1 [Example 78, 4-{3-[2-(4-cyanomethylphenylamino)benzyl]-4,4-dimethyl-2,5-dioxoimidazolidin-1-yl}-2-trifluoromethylbenzonitrile] | 4 | > 10000 | – | –
CC1(C)C(=O)N(c2ccc(C#N)c(C(F)(F)F)c2)C(=O)N1Cc1ccccc1Nc1ccc(C(F)(F)F)nc1 [Example 91, 4-{4,4-dimethyl-2,5-dioxo-3-[2-(6-trifluoromethylpyridin-3-ylamino)benzyl]-imidazolidin-1-yl}-2-trifluoromethylbenzonitrile] | 30 | > 10000 | – | –
COc1ccc(Nc2ccccc2CN2C(=O)N(c3ccc(C#N)c(C(F)(F)F)c3)C(=O)C2(C)C)cn1 [Example 83, 4-{3-[2-(6-methoxypyridin-3-ylamino)benzyl]-4,4-dimethyl-2,5-dioxoimidazolidin-1-yl}-2-trifluoromethylbenzonitrile] | 9 | > 10000 | – | –
CC1(C)C(=O)N(c2ccc(F)c(C(F)(F)F)c2)C(=O)N1Cc1ccccc1Nc1ccc(C(=N)NO)cc1 [Example 143, 4-{2-[3-(4-Fluoro-3-trifluoromethylphenyl)-5,5-dimethyl-2,4-dioxoimidazolidin-1-ylmethyl]phenylamino}-N-hydroxybenzamidine hydrochloride] | – | – | 13 | > 10000
CC1(C)C(=O)N(c2ccc(C#N)c(C(F)(F)F)c2)C(=O)N1Cc1ccccc1Nc1ccc(CC(=O)O)cc1 [Example 92, (4-{2-[3-(4-cyano-3-trifluoromethylphenyl)-5,5-dimethyl-2,4-dioxoimidazolidin-1-ylmethyl]phenylamino}phenyl)acetic acid] | – | – | 137 | > 10000
